According to ChEMBL document CHEMBL1127901, “Conformationally constrained analogues of dag .8. Changes in PK-C binding affinity produced by isosteric groups of the 3-O-acyl function in 2-deoxy-L-ribonolactones” (Bioorg Med Chem Lett, 1994):

How the values were obtained:
Protein kinase C (PKC) [1] = assay: Inhibition of [3H]-PDBU binding to protein kinase C mixture; assay type: protein assay, Rattus norvegicus
[2] = biological target: Protein kinase C alpha type (Rattus norvegicus, UniProt P05696); assay: Inhibition of [3H]PDBU binding to Protein kinase C alpha
Protein kinase C (PKC) [3] = assay: Inhibition of [3H]PDBU binding to protein kinase C mixture; assay type: protein assay, Rattus norvegicus

Row | Structure (SMILES) | Ki (Protein kinase C (PKC) [1]) [nM] | Ki [2] [nM] | Ki (Protein kinase C (PKC) [3]) [nM]
1 | CCCCCCCCCCCCCCO[C@@H]1CC(=O)O[C@H]1CO | 3310 | – | –
2 | CCCCCCCCCCCCCCOC(=O)[C@@H]1CC(=O)O[C@H]1CO | 8070 | – | –
3 | CCCCCCCCCCCCCC(=O)OC[C@@H]1CC(=O)O[C@H]1CO | – | 3100 | –
4 | CCCCCCCCCCCCCC(=O)O[C@@H]1CC(=O)O[C@H]1CO | – | 1500 | 2500
5 | CCCCCCCCCCCCCC(=O)O[C@@H]1CC(=O)O[C@H]1CCO | – | 880 | –
6 | CCCCCCCCCCCCCCOC(=O)C[C@@H]1CC(=O)O[C@H]1CCO | – | 18600 | –
7 | CCCCCCCCCCCCCCC(=O)[C@@H]1CC(=O)O[C@H]1CO | 50750 | – | –
8 | CCCCCCCCCCCCCCOC(=O)C[C@@H]1CC(=O)O[C@H]1CO | – | 1470 | –
